The format of data set [1] is physicochemical. Particulars: room temperature. As to the method:
For the experiment, a slurry mixture of forms A, X and Y in cyclohexane was stirred for about 48 hours at room temperature. After about 24 hours, the complete sample was transformed into form A (see FIG. 17).
A polymorphic crystalline form of the compound of Formula 1 was characterized and identified as form A″ The stability of form A at room temperature was confirmed by the slurry experiments at room temperature.

Data set [2] can be described thus: Conversion of solvate forms upon heating. Type of data set: physicochemical.
Data set [3] can be described thus: Stress milling (mortar and pestle). Type of data set: physicochemical. Particulars: manual grinding about 2, 5 and 10 mins. As to the method:
Crystalline ingenol mebutate is subjected to stress milling to investigate its physico-chemical stability. In the study, crystalline ingenol mebutate is manually ground using a mortar and pestle for durations of about 2, about 5 and about 10 mins.
Crystalline ingenol mebutate was subjected to stress milling (manually using a mortar and pestle) for durations of about 2, about 5 and about 10 mins.

Data set [4] in a line: Skin permeation of [3H]-PEP005, human split-thickness skin. It is filed as in vitro ADME. Particulars: gel ca 0.05% w/w. As to the method:
(§1) The rate and extent of absorption of [^3H]-ingenol mebutate over a 24 h exposure period following topical application of the gel to Wistar (WI) rat, Sprague Dawley (SD) rat, Göttingen mini-pig and human split-thickness skin was also assessed.

Data set [5] can be described thus: Skin permeation of [3H]-PEP005, mini-pig split-thickness skin. It is filed as in vitro ADME, Göttingen mini-pig. As to the method: as §1
The maximum hourly flux was 0.44, 0.80, 2.09, and 6.12 ng equiv./cm^2/h for human, mini-pig, SD and WI rat skin, respectively. […] The flux profile for mini-pig was dissimilar to the other species/strains. […] The other three species/strains had similar flux profiles with lag times of ca 1, 2 and 3 h for the human, SD and WI rat skin, respectively. This was followed by steady state flux from 4-24 h, 6-24 h and 8-24 h, respectively. Steady state flux was 0.39, 2.01 and 5.87 ng equiv./cm^2/h for the human, SD and WI rat skin, respectively. […] These differences with the mini-pig group compared to the other three skin groups may have been attributed to the preparation of the split-thickness skin. Due to the hair follicle depth in mini-pig skin, split-thickness skin was prepared at a depth of ca […] compared to ca […] for the other skin groups. Therefore, the thicker layer of dermis for the mini-pig skin may have acted as a reservoir for [3H]-PEP005 prior to partitioning into the receptor fluid.

The nature of data set [6]: Skin permeation of [3H]-PEP005, Sprague Dawley rat split-thickness skin. It is filed as in vitro ADME, Sprague Dawley (SD) rat. How it is done: as §1
Data set [7] in a line: Skin permeation of [3H]-PEP005, Wistar rat split-thickness skin. Type of data set: in vitro ADME, Wistar (WI) rat. How it is done:
as §1

Data set [8] deals with skin. As to the kind of experiment: UV irradiation studies (photoirritation, photoallergy). Type of data set: in vivo. Particulars: ingenol mebutate 0.01%, single and multiple applications. An excerpt: Studies have been conducted to assess the effects of UV irradiation on the skin following single and multiple applications of ingenol mebutate, 0.01%. […] However, excessive exposure to sunlight (including sunlamps and tanning beds) should be avoided or minimized during use of TRADEMARK Gel due to the nature of the disease.

Data set [9] has as its system rats. Put plainly: Teratogenicity study, intravenous route, rats. It is filed as in vivo, rat. Particulars: 5 μg/kg/day = 30 μg/m^2/day. As to the method:
(§2) Teratogenicity studies with ingenol mebutate were performed by the intravenous route in rats and rabbits.
(§3) In rats, ingenol mebutate was not associated with fetal developmental effects at doses up to 5 μg/kg/day (30 μg/m^2/day).

Data set [10] is described as follows: Teratogenicity study, intravenous route, rabbits. Type of data set: in vivo, rabbit. Particulars: female, rabbit, in vivo, 12 μg/m^2/day, read-out: fetal NOAEL. How it is done: as §2, §3
(§4) The fetal NOAEL was 1 μg/kg/day (12 μg/m^2/day).

The subject of data set [11] is rabbits. Put plainly: Teratogenicity study, intravenous route, rabbits. It is filed as in vivo, rabbit. Particulars: rabbits. As to the method:
as §2, §3, §4

For data set [12], the system named is tumor cells. As to the kind of experiment: Direct cytotoxic effect at high concentrations. It is filed as cell-based. Particulars: e.g., 100 μg/mL. The text has this:
(§5) Ingenol mebutate is a pleiotropic effector that exerts a direct cytotoxic effect on tumor cells and modulates Protein Kinase C (PKC) isoforms.

Data set [13] relates to human endothelial cells. As to the kind of experiment: PKC dependent activation of endothelial cells, neutrophil adhesion in vitro. It is filed as cell-based. Particulars: e.g., 10 to 100 ng/mL.
Excerpt: as §5

Data set [14] deals with isolated human keratinocytes. As to the kind of experiment: Exposure of isolated keratinocytes in vitro. It is filed as cell-based. Particulars: subclinical concentrations.
The test system of data set [15] is mouse skin. Put plainly: Application to mouse skin in vivo, inflammatory mediators. Particulars: subclinical concentrations.
The subject of data set [16] is squamous cell carcinoma and melanoma tumor. As to the kind of experiment: Mouse xenograft squamous cell carcinoma and melanoma tumor models, topical. It is filed as in vivo.
Data set [17] relates to tumors. Put plainly: Mouse xenograft models, intratumoral injection. Type of data set: in vivo.
Data set [18] has as its system receptors and enzymes. Put plainly: Off-target activity in various in vitro assays.
Data set [19] deals with human cytochrome P450 isoforms. As to the kind of experiment: In vitro cytochrome P450 inhibition/induction. Type of data set: in vitro ADME.
Data set [20] can be described thus: In vitro Ames test. Type of data set: cell-based. How it is done:
(§6) Carcinogenic evaluations of ingenol mebutate have not been conducted. Ingenol mebutate was not mutagenic in an in vitro Ames test, mouse lymphoma assay, and in vivo rat micronucleus test. Ingenol mebutate was positive in the Syrian hamster embryo (SHE) cell transformation assay at concentrations≧0.1 μg/mL.
In general terms: The Ames test uses bacterial strains that need an amino acid and regain growth without it when mutated back.

Data set [21] concerns mouse lymphoma. As to the kind of experiment: Mouse lymphoma assay. It is filed as cell-based. As to the method:
as §6

Data set [22] concerns rat. Put plainly: In vivo rat micronucleus test. How it is done:
as §6

Data set [23] concerns Syrian hamster embryo (SHE) cell. As to the kind of experiment: Syrian hamster embryo (SHE) cell transformation assay. It is filed as cell-based. How it is done: as §6
In data set [24] the test system is skin cancer cells. Particulars: via rapid mitochondrial disruption and primary necrosis; normal cells less sensitive; cited from earlier work.
The mark [25] stands for this setting: Mini-Pig skin, gel ca 0.05% w/w, NO = not observed.
The mark [26] stands for this setting: mini-pig skin vs human skin, % applied dose.
Setting [27] is: mini-pig skin, gel ca 0.05% w/w.
The mark [28] stands for this setting: SD rat skin vs human skin, % applied dose.
Where [29] appears, read: Sprague Dawley Rat skin, gel ca 0.05% w/w.
Where [30] appears, read: WI rat skin vs human skin, % applied dose.
[31] abbreviates: Wistar Rat skin, gel ca 0.05% w/w.

As for `C/C=C(/C)C(=O)O[C@H]1C(C)=C[C@]23C(=O)[C@@H](C=C(CO)[C@@H](O)[C@]12O)[C@H]1[C@@H](C[C@H]3C)C1(C)C` [form X, ingenol mebutate], the “time to conversion to form A in slurry” value in data set [1] (slurry of forms A, X and Y in c-hexane) is recorded as “about 24 hours”. Also, the behaviour upon heating entry in data set [2] was “converted into form A upon heating”.

Regarding `C/C=C(/C)C(=O)O[C@H]1C(C)=C[C@]23C(=O)[C@@H](C=C(CO)[C@@H](O)[C@]12O)[C@H]1[C@@H](C[C@H]3C)C1(C)C` [form A, ingenol mebutate], the “relative stability of forms A, X and Y” value in data set [1] was “most stable form at room temperature”. Also, the “physico-chemical stability on milling” value in data set [3] is “remained unaltered”.

On to `C/C=C(/C)C(=O)O[C@H]1C(C)=C[C@]23C(=O)[C@@H](C=C(CO)[C@@H](O)[C@]12O)[C@H]1C(C[C@H]3C)C1(C)C` (stereo in doubt) [[^3H]-ingenol mebutate], for which the “Lag Time” value in data set [4] is listed as around 1 h; in [5] (setting [25]), “no apparent lag time”; in data set [6] (setting [29]) it was around 2 h; in data set [7] (setting [31]), around 3 h. For the same compound, the entries for the “Period of Steady State Flux” value in data set [4], in data set [6] (setting [29]) and in data set [7] (setting [31]) were 4 to 24 h, 6 to 24 h and 8 to 24 h, respectively. The “Steady State Flux” value is on record as 0.39 ng equiv./cm^2/h in data set [4], “no apparent lag time or steady state flux observed” in [5] (setting [25]), 2.01 ng equiv./cm^2/h in [6] (setting [29]) and 5.87 ng equiv./cm^2/h in data set [7] (setting [31]). Further, the maximum hourly flux came out at 0.44 ng equiv./cm^2/h in data set [4]; 0.80 ng equiv./cm^2/h in [5] (setting [27]); 2.09 ng equiv./cm^2/h in [6] (SD rat skin, gel ca 0.05% w/w); 6.12 ng equiv./cm^2/h in data set [7] (WI rat skin, gel ca 0.05% w/w). Besides, the “time post dose at which maximum flux was achieved” value in data set [4] worked out at 16 h; in data set [5] (setting [27]) it was 1 h; in data set [7] (WI rat skin, gel ca 0.05% w/w) it was 16 h. For the same compound, the “Unabsorbed Dose” value in [4] (24 h exposure) amounted to 101.09 % Applied Dose; in [5] (Mini-Pig skin, gel ca 0.05% w/w, 24 h exposure) it was 93.35 % Applied Dose; in [6] (Sprague Dawley Rat skin, gel ca 0.05% w/w, 24 h exposure), 94.40 % Applied Dose; in [7] (Wistar Rat skin, gel ca 0.05% w/w, 24 h exposure), 90.31 % Applied Dose. Further, the “dermal delivery compared to human skin, fold greater” value was around 7.9 fold in data set [5] (setting [26]), around 5.1 fold in data set [6] (setting [28]) and around 9.2 fold in data set [7] (setting [30]). In data set [5] (setting [26]), the “total absorption compared to human skin, fold less” value is given as around 1.4 fold. The results for the “steady state flux compared to human skin, fold greater” value in [6] (SD rat skin vs human skin) and in data set [7] (WI rat skin vs human skin) were around 5.2 fold and around 15.1 fold, respectively. Also, the “total absorption compared to human skin, fold greater” value is around 4.9 fold in [6] (setting [28]) and around 13.8 fold in data set [7] (setting [30]).

One may read the NOAEL as the highest tested level that showed no adverse finding. Consider `C/C=C(/C)C(=O)O[C@H]1C(C)=C[C@]23C(=O)[C@@H](C=C(CO)[C@@H](O)[C@]12O)[C@H]1[C@@H](C[C@H]3C)C1(C)C` [ingenol mebutate, (1 aR,2S,5R,5aS,6S,8aS,9R,10aR)-5,5a-dihydroxy-4-(hydroxymethyl)-1,1,7,9-tetramethyl-11-oxo-1a,2,5,5a,6,9,10,10a-octahydro-1H2,8a-methanocyclopenta[a]cyclopropa[e]cyclodecen-6-yl(2Z)-2-methylbut-2-enoate], for which the “Lag Time” value is on record as 1 h in data set [4], 2 h in data set [6] (setting [29]) and 3 h in [7] (setting [31]). The results for the “Period of Steady State Flux” value in data set [4], in data set [6] (setting [29]) and in data set [7] (setting [31]) were 4.24 h, 6.24 h and 8.24 h, respectively. The “Steady State Flux” value was found to be 0.39 ng equiv./cm^2/h in [4], 2.01 ng equiv./cm^2/h in data set [6] (setting [29]) and 5.87 ng equiv./cm^2/h in data set [7] (setting [31]). Further, the “photoirritation or photoallergy effects” value in data set [8] is “did not demonstrate any potential for photoirritation or photoallergy effects”. Moreover, the “doses not associated with fetal developmental effects” value in data set [9] is given as “up to 5 μg/kg/day”. Moreover, the NOAEL in data set [10] is 0.001 mg/kg/day. Besides, the “doses at which maternal toxicity (increased breathing) was observed” value in data set [11] (1 μg/kg/day = 12 μg/m^2/day) was at least 1 µg/kg/day. Further, the “doses with slight increase in incidence of incompletely ossified cervical vertebral arches” value in [11] (2 μg/kg/day = 24 μg/m^2/day) is at least 2 µg/kg/day. Further, the embryo-fetal findings entry in data set [11] (4 μg/kg/day (48 μg/m^2/day), marginal, not statistically significant) is “slight increase in embryonic deaths, an increase in jugular fusion to the maxilla and a variation in the origin of arteries arising from the aortic arch”. Besides, in [12], the “effect on cells at high concentrations” value was “induces mitochondrial swelling and loss of cell membrane integrity leading to cell death”. In addition, the “effect on endothelial cells at subclinical concentrations” value in data set [13] is listed as “stimulates PKC dependent activation of human endothelial cells to support neutrophil adhesion”. The effect on keratinocytes result in [14] was “cytokine release and specific PKC-mediated neutrophil activation”. Further, in [15], the “release of inflammatory mediators in mouse skin” value was “induced the release of inflammatory mediators IL-8/MIP-2 and TNF-α resulting in neutrophil recruitment and activation”. In addition, in data set [16], the effect on tumors result is “removes tumors and prevents tumor recurrence”. Moreover, the “immune response after intratumoral injection” value in data set [17] was “stimulated a tumor-specific CD8+T cell response with anti-tumor activity against distant secondary tumors”. Also, in data set [18], the off-target activity result was “did not inhibit or stimulate receptors and enzymes”. Besides, the “inhibition or induction of cytochrome P450 isoforms” value in [19] is “does not inhibit or induce human cytochrome P450 isoforms”. Besides, the mutagenicity entry in data set [20], in data set [21] and in data set [22] was “not mutagenic” throughout. Besides, the “concentrations positive in SHE cell transformation assay” value in [23] (Syrian hamster, Syrian hamster embryo (SHE) cells) was at least 100 ng/mL. In [23] (concentrations≧0.1 μg/mL), the cell transformation result is reported as “positive”. Besides, the “toxicity for skin cancer cells” value in [24] is reported as “highly toxic”.

(Values after patent US20140249218A1, “ADMINISTRATION OF INGENOL MEBUTATE” (LEO Laboratories Limited, priority 2013, published 2014).)
